Values of other authors in patent US20180147141A1, “CHEWING GUM COMPOSITION COMPRISING CANNABINOIDS AND GABAPENTIN” (AXIM Biotechnologies, Inc., priority 2016, published 2018).

Test system: GABA receptors
Conditions: at concentrations at or below 1 millimolar

NCC1(CC(=O)O)CCCCC1 [Gabapentin, 1-(aminomethyl)cyclohexaneacetic acid]
binding to GABA receptors: has not been shown to bind
